Laboratory results as given in ChEMBL document CHEMBL5390254, “Discovery and Optimization of Novel hDHODH Inhibitors for the Treatment of Inflammatory Bowel Disease” (J Med Chem, 2023).
Calls of active or inactive are those of the source. The rule behind the calls is not given here.

Experiments:
[1] = 1-octanol/water partition coefficient, logP of the compound at 2 mg by UPLC analysis; type: physicochemical
[2] = Acute toxicity in BALB/c mouse assessed as changes in UA level in serum at 1000 mg/kg,po and measured after 14 days by Biochemistry analysis; type: organism-based; conditions: in vivo, 336 h, time 14 day
[3] = Metabolic stability in mouse liver microsomes assessed as intrinsic clearance at 3 uM incubated upto 90 mins in presence of NADPH by LC-MS/MS analysis; type: ADME, Microsome; conditions: read-out: CLH
Mus musculus [4] = test: Anti-inflammatory activity against DSS-induced acute ulcerative colitis in C57BL/6 mouse model assessed as decrease in IL-17 mRNA expression level in colon at 100 mg/kg, po QD for 6 days by RT-PCR analysis; type: functional, organism-based; conditions: time 6.0 day
[5] = Acute toxicity in BALB/c mouse assessed as changes in RBC level in blood at 1000 mg/kg,po and measured after 14 days by hematology test; type: organism-based, Erythrocyte; conditions: in vivo, 336 h, time 14 day
[6] = Acute toxicity in BALB/c mouse assessed as tissue damage in spleen at 1000 mg/kg,po and measured after 14 days by hematoxylin and eosin staining based microscopy; type: organism-based; conditions: in vivo, 336 h, time 14 day
[7] = Acute toxicity in BALB/c mouse assessed as changes in hemoglobin level in blood at 1000 mg/kg,po and measured after 14 days by hematology test; type: organism-based; conditions: in vivo, 336 h, time 14 day
Mus musculus [8] = test: Anti-inflammatory activity against DSS-induced acute ulcerative colitis in C57BL/6 mouse model assessed as decrease in IL-17 production in colon at 100 mg/kg, po QD for 6 days by ELISA; type: functional, organism-based; conditions: time 6.0 day
Mus musculus [9] = test: Anti-inflammatory activity against DSS-induced acute ulcerative colitis in C57BL/6 mouse model assessed as decrease in IL-6 production in colon at 100 mg/kg, po QD for 6 days by ELISA; type: functional, organism-based; conditions: time 6.0 day
[10] = Acute toxicity in BALB/c mouse assessed as changes in hematocrit level in blood at 1000 mg/kg,po and measured after 14 days by hematology test; type: organism-based; conditions: in vivo, 336 h, time 14 day
[11] = Acute toxicity in BALB/c mouse assessed as body weight loss at 1000 mg/kg,po and measured for 14 days; type: organism-based; conditions: in vivo, 336 h, time 14 day
[12] = Metabolic stability in mouse liver microsomes assessed as half life at 3 uM incubated upto 90 mins in presence of NADPH by LC-MS/MS analysis; type: ADME, Microsome
[13] = Acute toxicity in BALB/c mouse assessed as changes in platelet count in blood at 1000 mg/kg,po and measured after 14 days by hematology test; type: organism-based; conditions: in vivo, 336 h, time 14 day
[14] = Acute toxicity in BALB/c mouse assessed as changes in AST level in serum at 1000 mg/kg,po and measured after 14 days by Biochemistry analysis; type: organism-based; conditions: in vivo, 336 h, time 14 day
[15] = Acute toxicity in BALB/c mouse assessed as changes in CK level in serum at 1000 mg/kg,po and measured after 14 days by Biochemistry analysis; type: organism-based; conditions: in vivo, 336 h, time 14 day
[16] = Acute toxicity in BALB/c mouse assessed as tissue damage in lung at 1000 mg/kg,po and measured after 14 days by hematoxylin and eosin staining based microscopy; type: organism-based; conditions: in vivo, 336 h, time 14 day
[17] = Acute toxicity in BALB/c mouse assessed as tissue damage in liver at 1000 mg/kg,po and measured after 14 days by hematoxylin and eosin staining based microscopy; type: organism-based; conditions: in vivo, 336 h, time 14 day
[18] = Acute toxicity in BALB/c mouse assessed as death at 1000 mg/kg,po and measured for 14 days; type: organism-based; conditions: in vivo, 336 h, time 14 day
[19] = Metabolic stability in rat liver microsomes assessed as half life at 3 uM incubated upto 90 mins in presence of NADPH by LC-MS/MS analysis; type: ADME, Microsome
[20] = Acute toxicity in BALB/c mouse assessed as changes in WBC level in blood at 1000 mg/kg,po and measured after 14 days by hematology test; type: organism-based; conditions: in vivo, 336 h, time 14 day
[21] = Acute toxicity in BALB/c mouse assessed as tissue damage in kidney at 1000 mg/kg,po and measured after 14 days by hematoxylin and eosin staining based microscopy; type: organism-based; conditions: in vivo, 336 h, time 14 day
Mus musculus [22] = test: Anti-inflammatory activity against DSS-induced acute ulcerative colitis in C57BL/6 mouse model assessed as decrease in IL-1beta production in colon at 100 mg/kg, po QD for 6 days by ELISA; type: functional, organism-based; conditions: time 6.0 day
[23] = Metabolic stability in human liver microsomes assessed as half life at 3 uM incubated upto 90 mins in presence of NADPH by LC-MS/MS analysis; type: ADME, Microsome
[24] = Acute toxicity in BALB/c mouse assessed as changes in general health status at 1000 mg/kg,po and measured for 14 days; type: organism-based; conditions: in vivo, 336 h, time 14 day
Mus musculus [25] = test: Anti-inflammatory activity against DSS-induced acute ulcerative colitis in C57BL/6 mouse model assessed as decrease in IL-1beta mRNA expression level in colon at 100 mg/kg, po QD for 6 days by RT-PCR analysis; type: functional, organism-based; conditions: time 6.0 day
[26] = Metabolic stability in human liver microsomes assessed as intrinsic clearance at 3 uM incubated upto 90 mins in presence of NADPH by LC-MS/MS analysis; type: ADME, Microsome; conditions: read-out: CLH
Mus musculus [27] = test: Anti-inflammatory activity against DSS-induced acute ulcerative colitis in C57BL/6 mouse model assessed as decrease in IL-6 mRNA expression level in colon at 100 mg/kg, po QD for 6 days by RT-PCR analysis; type: functional, organism-based; conditions: time 6.0 day
[28] = Acute toxicity in BALB/c mouse assessed as changes in ALT level in serum at 1000 mg/kg,po and measured after 14 days by Biochemistry analysis; type: organism-based; conditions: in vivo, 336 h, time 14 day
[29] = Acute toxicity in BALB/c mouse assessed as changes in lymph level in blood at 1000 mg/kg,po and measured after 14 days by hematology test; type: organism-based; conditions: in vivo, 336 h, time 14 day
[30] = Acute toxicity in BALB/c mouse assessed as changes in neutrophil level in blood at 1000 mg/kg,po and measured after 14 days by hematology test; type: organism-based; conditions: in vivo, 336 h, time 14 day
[31] = Acute toxicity in BALB/c mouse assessed as changes in ALP level in serum at 1000 mg/kg,po and measured after 14 days by Biochemistry analysis; type: organism-based; conditions: in vivo, 336 h, time 14 day
[32] = Metabolic stability in rat liver microsomes assessed as intrinsic clearance at 3 uM incubated upto 90 mins in presence of NADPH by LC-MS/MS analysis; type: ADME, Microsome; conditions: read-out: CLH
Mus musculus [33] = test: Anti-inflammatory activity against DSS-induced acute ulcerative colitis in C57BL/6 mouse model assessed as decrease in colon length shortening at 100 mg/kg, po QD for 6 days (Rvb= 5.5cm); type: functional; conditions: time 6 day
[34] = Acute toxicity in BALB/c mouse assessed as changes in LDH level in serum at 1000 mg/kg,po and measured after 14 days by Biochemistry analysis; type: organism-based; conditions: in vivo, 336 h, time 14 day
Mus musculus [35] = test: Anti-inflammatory activity against DSS-induced acute ulcerative colitis in C57BL/6 mouse model assessed as decrease in body weight loss at 100 mg/kg, po QD for 6 days (Rvb= 25.6%); type: functional; design: scale not given: the % may be the effect or the level left; conditions: time 6 day
[36] = Acute toxicity in po dosed BALB/c mouse assessed as maximum tolerate dose; type: organism-based; conditions: in vivo
Mus musculus [37] = test: Anti-inflammatory activity against DSS-induced acute ulcerative colitis in C57BL/6 mouse model assessed as decrease in DAI score at 100 mg/kg, po QD for 6 days; type: functional, organism-based; conditions: time 6.0 day
[38] = Acute toxicity in BALB/c mouse assessed as changes in TP level in serum at 1000 mg/kg,po and measured after 14 days by Biochemistry analysis; type: organism-based; conditions: in vivo, 336 h, time 14 day
[39] = Acute toxicity in BALB/c mouse assessed as changes in ALB level in serum at 1000 mg/kg,po and measured after 14 days by Biochemistry analysis; type: organism-based; conditions: in vivo, 336 h, time 14 day
[40] = Acute toxicity in BALB/c mouse assessed as changes in urea level in serum at 1000 mg/kg,po and measured after 14 days by Biochemistry analysis; type: organism-based; conditions: in vivo, 336 h, time 14 day
Mus musculus [41] = test: Anti-inflammatory activity against DSS-induced acute ulcerative colitis in C57BL/6 mouse model assessed as decrease in colon tissue damage score at 100 mg/kg, po QD for 6 days relative to DSS group; type: functional; design: scale not given: the % may be the effect or the level left; conditions: time 6 day
[42] = Acute toxicity in BALB/c mouse assessed as tissue damage in heart at 1000 mg/kg,po and measured after 14 days by hematoxylin and eosin staining based microscopy; type: organism-based; conditions: in vivo, 336 h, time 14 day
[43] = Acute toxicity in BALB/c mouse assessed as changes in CREA level in serum at 1000 mg/kg,po and measured after 14 days by Biochemistry analysis; type: organism-based; conditions: in vivo, 336 h, time 14 day

In the case of Fc1cccc(F)c1Cn1cc(-c2ncc(C3CC3)cn2)c2cccnc21, the logP [1] is reported as 5.5.

With Fc1cccc(Cl)c1Cn1cc(-c2ncc(C3CC3)cn2)c2cccnc21 the Activity [2] was “Non-Toxic”, the CLint scaled at 3 µM [3] was 693 mL/min/kg and the Activity (Mus musculus [4]) was “Active”. For the same compound, the Activity [5] was “Non-Toxic”, the Activity [6] was “Non-Toxic” and the Activity [7] was “Non-Toxic”. For the same compound, the Activity (Mus musculus [8]) was “Active”, the Activity (Mus musculus [9]) was “Active” and the Activity [10] was “Non-Toxic”. For the same compound, the Activity [11] was “Non-Toxic”, the logP [1] was 5.3 and the half-life at 3 µM [12] was 7.9 min. For the same compound, the Activity [13] was “Non-Toxic”, the Activity [14] was “Non-Toxic” and the Activity [15] was “Non-Toxic”. For the same compound, the Activity [16] was “Non-Toxic”, the Activity [17] was “Non-Toxic” and the Activity [18] was “Non-Toxic”. For the same compound, the half-life at 3 µM [19] was 16.5 min, the Activity [20] was “Non-Toxic” and the Activity [21] was “Non-Toxic”. For the same compound, the Activity (Mus musculus [22]) was “Active”, the half-life at 3 µM [23] was 9.2 min and the Activity [24] was “Non-Toxic”. For the same compound, the Activity (Mus musculus [25]) was “Active”, the CLint scaled at 3 µM [26] was 190 mL/min/kg and the Activity (Mus musculus [27]) was “Active”. The Activity [28] was “Non-Toxic”, the Activity [29] was “Non-Toxic” and the Activity [30] was “Non-Toxic”. The Activity [31] was “Non-Toxic”, the CLint scaled at 3 µM [32] was 150 mL/min/kg and the Activity (Mus musculus [33]) was 6.1 cm. The Activity [34] was “Non-Toxic”, the Activity (Mus musculus [35]) was 17.6% and the MTD [36] was 1000 mg/kg. For the same compound, the Activity (Mus musculus [37]) was “Active”, the Activity [38] was “Non-Toxic” and the Activity [39] was “Non-Toxic”. For the same compound, the Activity [40] was “Non-Toxic”, the Activity (Mus musculus [41]) was 27.27% and the Activity [42] was “Non-Toxic”. For the same compound, the Activity [43] was “Non-Toxic”.
